# In ChEMBL document CHEMBL1157539, “Thousands of chemical starting points for antimalarial lead identification” (Nature, 2010):
# System: Plasmodium falciparum
# Assay: GSK_TCMDC: Inhibition of Plasmodium falciparum 3D7 in whole erythrocytes, using parasite LDH activity as an index of growth.
# Type: functional, organism-based
# Conditions: Plasmodium falciparum, 3D7
row,Compound,XC50
1,CO/C(=C\C=C/c1cc2cc(Cl)c(Cl)cc2[nH]1)C(=O)NC1CC(C)(C)N(C)C(C)(C)C1,833 nM
2,CCN(CC)CCN(CCCc1ccc(-c2ccc(C(F)(F)F)cc2)cc1)C(=O)Cn1c(CCc2cccc(F)c2F)nc(=O)c2c1CCC2,828 nM
3,CCN(CC)CCN(Cc1ccc(-c2ccc(Cl)cc2)cc1)C(=O)Cn1c(CCc2cccc(F)c2F)nc(=O)c2ccccc21,769 nM
4,Cc1cc(F)ccc1Nc1nc(N(C)c2ccccc2)c2cc(OCCCN(C)C)ccc2n1,717 nM
5,CC1CCCC(NCc2c(O)ccc3ccccc23)C1 (centres undefined),931 nM
6,O=C(NC1CC1)c1ccc(Cn2c(SCc3cccc([N+](=O)[O-])c3)nc3ccccc3c2=O)cc1,764 nM
7,O=[N+]([O-])c1cccc(Nc2nccc(-c3cnn4ncccc34)n2)c1,184 nM
8,Cc1nnc2sc(-c3cccc(NC(=O)c4ccc(N5CCCCC5)c([N+](=O)[O-])c4)c3)nn12,1300 nM
9,O=C(N[C@@H](CC1CCCCC1)C(=O)NCCN1CCOCC1)c1ccc(O)c(-c2ccc(Cl)c(Cl)c2)c1,181 nM
10,O=C(/C=C/c1ccc(O)cc1)NC1CCC(CN2CCC(c3c[nH]c4ccccc34)CC2)CC1 (centres undefined),744 nM
11,O=c1c(NCCCN(Cc2ccc(F)cc2)c2ccccn2)c(NCc2ccncc2)c1=O,153 nM
12,COc1cc2c(c(Cl)c1OC)CCN(C(=O)C(F)(F)F)CC2c1ccccc1 (centres undefined),441 nM
13,CCOC(=O)c1c(CN(CC)CC)n(-c2ccccc2)c2cc(Br)c(O)cc12,998 nM
14,N#Cc1ccc2c(c1)CN(CCC1CCC(NC(=O)c3cc4ccccc4cc3N)CC1)CC2 (centres undefined),1040 nM
15,Cc1cc(N[C@@H](Cc2ccccc2)C(=O)NCCc2ccccc2)nc(NCC2CCCCC2)n1,917 nM
16,O=C(/C=C/c1ccc(Cl)c(Cl)c1)NCCCCCN1CC[C@H](NC(=O)Nc2ccc(Oc3ccccc3)cc2)C1,703 nM
17,Cc1cccc2nc(-c3cccc(-c4cccc(NC(=O)c5ccncc5)c4)c3)[nH]c12,236 nM
18,COc1cc(-c2cc3cc(Cl)c(Cl)cc3[nH]2)ccc1C(=O)NC1CCN(Cc2ccccc2)CC1,531 nM
19,Cc1cc(C(F)(F)F)cc(-n2ncc(-c3ccc(C(=O)NCCNCc4ccccc4)cc3)c2N)n1,1070 nM
20,O=C(/C=C/c1ccc(Cl)c(Cl)c1)N1CCC(CCCN2CCC(c3c[nH]c4ccccc34)CC2)CC1,707 nM
21,Cc1cccc2nc(-c3cccc(-c4ccc(C(=O)NCCc5ccc(O)c(=O)[nH]5)cc4)c3)[nH]c12,1190 nM
22,Oc1ccccc1Nc1nc(NCc2ccco2)c2ccccc2n1,644 nM
23,Cc1nc(N)nc(N)c1CCCOc1ccc(Br)cc1,485 nM
24,Cc1nc(C)c(-c2ccc(C(=O)c3ccc(Cl)cc3)cc2)c(O)c1Cl,535 nM
25,CC(=O)c1ccc(NC(=O)CSc2nc(-c3ccccc3Cl)ns2)cc1,1130 nM

row,Compound,XC50
1,COc1ccc(NC(=O)Nc2ccc(-c3ccccc3)cc2)cc1Cn1cnc(N2CCCNCC2)cc1=O,759 nM
2,COc1cccc(NC(=O)Nc2ccc(Nc3nc(C)cc(N4CCCC4)n3)cc2)c1,198 nM
3,COCCCN=C(S)NN=C(C)c1ccccn1,296 nM
4,O=S(=O)(NCCCN1CCOCC1)c1ccc2nccc(Nc3ccc(Oc4ccccc4)cc3)c2c1,855 nM
5,c1ccc(CNCc2cccc(-c3csc(-c4nc5ccccc5[nH]4)c3)c2)cc1,456 nM
6,COC(=O)c1ccccc1N1CCN(CCCCNC(=O)c2ccc(NC(=O)c3cc(Cl)cc(Cl)c3)cc2)CC1,558 nM
7,CS(=O)(=O)CCNCc1cccc(-c2cc3c(Nc4ccc(OCc5ccccc5)cc4)ncnc3cn2)c1,734 nM
8,CC(=O)c1c(Cc2ccccc2Cl)c[nH]c1C,848 nM
9,Cc1cc(N[C@@H](Cc2ccccc2)C(=O)NCCOc2ccccc2)nc(Nc2ccccc2)n1,875 nM
10,COc1nc2c(CCN3CC[C@H](NCc4ccc5c(c4)NC(=O)CO5)[C@H](O)C3)c(Cl)cnc2cc1F,1020 nM
11,CCCCCCCN1CC[C@@H](CCCc2ccnc3ccc(OCCCCNC(N)=O)cc23)[C@@H](CC)C1,835 nM
12,Cc1noc(-c2ccccc2)c1CN1CCCC2(CC(C(=O)NCc3cccc(F)c3F)=NO2)C1 (centres undefined),1010 nM
13,O=C(Nc1ccc(-c2nc3ccccc3[nH]2)cc1)c1ccc(Cl)s1,595 nM
14,Cc1[nH]c(C)c(-c2ccc(-c3cccc(Cl)c3)nc2)c(=O)c1Br,318 nM
15,CCCCCC(C)C(C)c1cc(O)c2c(c1)OC(C)(C)c1cnccc1-2 (centres undefined),770 nM
16,O=C(NCCCN1CCC(Cc2ccccc2)CC1)c1cc2c(Cl)nc3ccccc3c2s1,744 nM
17,O=C1CCCN1CCCNCc1ccc(-c2ccc(-c3nc4cc(C(F)(F)F)ccc4[nH]3)s2)cc1,380 nM
18,O=C(Nc1nc2cc(S(=O)(=O)NCc3ccc(Cl)c(Cl)c3)ccc2n1CCCn1ccnc1)c1ccc(Cl)cc1,727 nM
19,c1ccc(Oc2ccc(Nc3ccnc(Nc4cccc(CNCCCN5CCOCC5)c4)n3)cc2)cc1,1040 nM
20,O=C(Nc1cncc(NC(=O)c2ccc(Cl)c(Cl)c2)c1)c1ccc(Cl)c(Cl)c1,730 nM
21,COc1cc2nc(NCc3nc4ccccc4[nH]3)nc(N)c2cc1OC,885 nM
22,CC(C)(C)c1nn(-c2ccccc2)c2[nH]c(=O)c(CNCc3ccccc3)cc12,1050 nM
23,COc1cc(Cc2cnc(N)nc2N)cc(OCCCCCCN2C(=O)c3ccccc3C2=O)c1OC,1100 nM
24,CC(C)COc1ccc(Cl)cc1Cc1ccc(-c2nc3cc(F)c(F)cc3[nH]2)o1,894 nM
25,CC(=O)Nc1ccc(S(=O)(=O)N2CCN(c3nc(NC4CCCC4)c4ccccc4n3)CC2)cc1,1030 nM

row,Compound,XC50
1,CCc1ccc(NC(=O)c2ccc(CN3CCCN(Cc4cccc(Cl)c4)CC3)cc2)cc1,1110 nM
2,COc1cccc(Nc2nc(Nc3cccc(C#N)c3)cc(C(F)(F)F)n2)c1,834 nM
3,Cc1ccc(-c2cc(C(=O)Nc3ccc(S(=O)(=O)N(C)Cc4ccccc4)cc3)[nH]n2)c(O)c1,845 nM
4,COc1cc(C(=O)Nc2cccc(-c3nc4ccccc4[nH]3)c2)cc(OC)c1OC,723 nM
5,CN1CCN(c2ccc(CNc3ccc4ncc(-c5cccc(OC(F)(F)F)c5)n4n3)cc2)CC1,862 nM
6,COc1ccc2nccc([C@@H](O)CN3CCC(NC(=O)c4cc5cccnc5[nH]4)CC3)c2c1,894 nM
7,COc1ccc(-c2ccc(NC(=O)c3ccc(F)cc3)cc2)cc1CNC(C)C,758 nM
8,Cc1ccc(N2C(N)=NC(N)=NC2(C)C)cc1,36.6 nM
9,O=C(/C=C/c1ccc(CNCCN2CCOCC2)cc1)NCCc1ccccc1,864 nM
10,CC(C)(C)c1ccc(NC(=O)c2cccc(CN3CCCN(Cc4cccc(Cl)c4)CC3)c2)cc1,997 nM
11,CCOc1ccc2c(=NN=Cc3cccc(Cl)c3)cc(C)[nH]c2c1,864 nM
12,c1cc(CN2CCN(c3ccncc3)CC2)cc(-c2cccc(-c3nc4ccccc4[nH]3)c2)c1,126 nM
13,COc1ccc(-c2cccc(CNC3CCN(C)CC3)c2)cc1S(=O)(=O)NCc1ccccc1,874 nM
14,COc1cccc(-c2csc(C(=O)NC3CCCCN(Cc4ccc(C(C)(C)C)cc4)C3)c2)c1 (centres undefined),887 nM
15,CCCN(Cc1nnc(-c2ccco2)o1)C(=O)C1CCCN(C(=O)c2ccc(Cl)cc2)C1 (centres undefined),518 nM
16,CN(Cc1cccc(O)c1)C1CCN(c2cc(NC(=O)c3ccc(F)cc3)ccn2)C1 (centres undefined),1150 nM
17,CN(C)S(=O)(=O)n1ccc2c3c(N)nc(N)nc3ccc21,45.9 nM
18,Cc1cc(C(=O)OCC(N)=O)c(C)n1-c1ccc(F)cc1,331 nM
19,CC1(C)N=C(N)N=C(N)C1c1ccc(Cl)c(Cl)c1 (centres undefined),25.9 nM
20,CCCC(CNCc1ccc(Cl)c(C(F)(F)F)c1)CNc1nc2cnccc2[nH]1 (centres undefined),291 nM
21,O=C(Nc1ccc(Cl)c(Cl)c1)Nc1cc(C(F)(F)F)ccc1Cl,1440 nM
22,CC(Nc1cc(-c2ccccn2)nc(-c2ccccn2)n1)c1ccccc1 (centres undefined),453 nM
23,Oc1ccc(CN2CCN(CCOC(c3ccccc3)c3ccc(Cl)cc3)CC2)cc1Cl (centres undefined),858 nM
24,N=C(N)NC(=O)Nc1cc(Cl)c(F)c(Cl)c1,635 nM
25,O=S(=O)(c1c(Cl)cc(Cl)cc1Cl)N1CCCCC(c2ccc(F)c(F)c2)=N1,594 nM

row,Compound,XC50
1,CCc1c[nH]c2c(N(c3ccccc3)S(C)(=O)=O)cc(C(=O)N[C@@H](Cc3ccccc3)[C@H](O)CNC(C)(C)CCCC(C)C)cc12,823 nM
2,O=C(Nc1ccc(OC2CCN(Cc3ccccc3)CC2)c(Cl)c1)c1cccs1,312 nM
3,COC(=O)c1ccc2nc(-c3ccc(/C=C/C(=O)NC4CCN(Cc5ccccc5)CC4)cc3)[nH]c2c1,711 nM
4,Cc1sc2ccc(Cl)cc2c1S(=O)(=O)Nc1ccc2nccc(N3CC(C)NC(C)C3)c2c1 (centres undefined),114 nM
5,Cc1ccccc1Nc1cc(Nc2ccccc2C)c2ccccc2n1,782 nM
6,CC(C)CC(=O)Nc1cc(=O)[nH]c2nc(-c3ccccc3)nn12,351 nM
7,Cc1csc(NC2=NCCN2)n1,471 nM
8,CC(=O)c1c(CC(=O)O)c2ccccc2n1O,735 nM
9,COc1ccc2nc3cc(Cl)ccc3c(Nc3ccc(O)c(CNC(C)C)c3)c2c1,140 nM
10,CC(=O)Nc1[nH]c(-c2ccccc2)nc1C(N)=O,249 nM
11,Cc1ccccc1OCCCc1c(C)nc(N)nc1N,277 nM
12,CCN1CCN(CCNc2c3ccccc3nc3ccccc23)CC1,1020 nM
13,COc1ccc2nccc([C@@H](O)CN3CCC(NCc4ccc5c(n4)NCCC5)CC3)c2c1,738 nM
14,CN1CCN(Cc2ccc(-c3ccc4c(Nc5cc(O)c(F)cc5Cl)ccnc4c3)o2)CC1,132 nM
15,Cc1cc(N[C@@H](CC(C)C)C(=O)NCc2cccc(F)c2)nc(NCCc2ccc(F)cc2)n1,1470 nM
16,CN(C)C=Nc1ccc(OCCCCCCOc2ccc(N=CN(C)C)cc2)cc1,132 nM
17,COc1cc2nc(NCCCOC(C)C)n3nc(-c4ccccc4)nc3c2cc1OC,196 nM
18,Cc1noc(C)c1-c1ccc2c(Nc3ccc([N+](=O)[O-])cc3)c(C(N)=O)cnc2c1,692 nM
19,COc1ccc(NC(=O)/C=C/c2ccccc2Cl)cc1OCCN1CCC(NCc2cccnc2)CC1,761 nM
20,CC(=O)c1cccc(NC(=O)N2CCCN(CCCCCNC(=O)/C=C/c3ccc(Cl)c(Cl)c3)CC2)c1,1010 nM
21,Cc1ccc(-c2ccc(NC(=O)N3CCc4cc(Br)c(N5CCN(C)CC5)cc43)cc2)cn1,1350 nM
22,CC(C)(C)c1ccc(NC(=O)Nc2ccc(Cn3ncc(N4CCCNCC4)c(Cl)c3=O)cc2)cc1,752 nM
23,CS(=O)(=O)Nc1cccc(-c2cnc3[nH]cc(-c4ccc(CCC(=O)O)cc4)c3c2)c1,1060 nM
24,COc1ccc(CCN(C)CCOc2ccc(NC(=O)c3cccc4cc5ccccc5nc34)cc2)cc1OC,680 nM
